Measured values: the supplement of paper PMC10307832

Columns and labels:
Assay in all cases: relative viability (nuclei count vs DMSO), 5 days (fraction); higher = more cells survive
Dovitinib + Alpelisib = compound: CN1CCN(c2ccc3nc(-c4c(N)c5c(F)cccc5[nH]c4=O)[nH]c3c2)CC1 [Dovitinib] + Cc1nc(NC(=O)N2CCC[C@H]2C(N)=O)sc1-c1ccnc(C(C)(C)C(F)(F)F)c1 [Alpelisib] (partner 2 µM)
Outline: (§1)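 Relative viability was taken as the ratio of nuclei in treated wells to nuclei in vehicle wells. Lung cancer cell lines in 1536-well plates received compounds by pin tool one day after seeding, either one drug alone or a fixed anchor-drug dose plus five library-drug doses (not always all listed) in √10 steps. Nuclei were counted on 4× images after 5 days of treatment, and values are medians of duplicate plates.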

Dovitinib + Tozasertib = compound: CN1CCN(c2ccc3nc(-c4c(N)c5c(F)cccc5[nH]c4=O)[nH]c3c2)CC1 [Dovitinib] + Cc1cc(Nc2cc(N3CCN(C)CC3)nc(Sc3ccc(NC(=O)C4CC4)cc3)n2)n[nH]1 [Tozasertib] (partner 0.1 µM)
Outline: as §1

Dovitinib + Dasatinib = compound: CN1CCN(c2ccc3nc(-c4c(N)c5c(F)cccc5[nH]c4=O)[nH]c3c2)CC1 [Dovitinib] + Cc1nc(Nc2ncc(C(=O)Nc3c(C)cccc3Cl)s2)cc(N2CCN(CCO)CC2)n1 [Dasatinib] (partner 0.075 µM)
Outline: as §1

Dovitinib + Luminespib = compound: CN1CCN(c2ccc3nc(-c4c(N)c5c(F)cccc5[nH]c4=O)[nH]c3c2)CC1 [Dovitinib] + CCNC(=O)c1noc(-c2cc(C(C)C)c(O)cc2O)c1-c1ccc(CN2CCOCC2)cc1 [Luminespib] (partner 0.01 µM)
Outline: as §1

Row | Cell Line | relative viability (Dovitinib + Alpelisib; first compound 0.02 µM) | relative viability (Dovitinib + Alpelisib; first compound 0.06325 µM) | relative viability (Dovitinib + Alpelisib; first compound 0.2 µM) | relative viability (Dovitinib + Alpelisib; first compound 0.6325 µM) | relative viability (Dovitinib + Alpelisib; first compound 2 µM) | relative viability (Dovitinib + Tozasertib; first compound 0.02 µM) | relative viability (Dovitinib + Tozasertib; first compound 0.06325 µM) | relative viability (Dovitinib + Tozasertib; first compound 0.2 µM) | relative viability (Dovitinib + Tozasertib; first compound 0.6325 µM) | relative viability (Dovitinib + Tozasertib; first compound 2 µM) | relative viability (Dovitinib + Dasatinib; first compound 0.02 µM) | relative viability (Dovitinib + Dasatinib; first compound 0.06325 µM) | relative viability (Dovitinib + Dasatinib; first compound 0.2 µM) | relative viability (Dovitinib + Dasatinib; first compound 0.6325 µM) | relative viability (Dovitinib + Dasatinib; first compound 2 µM) | relative viability (Dovitinib + Luminespib; first compound 0.02 µM) | relative viability (Dovitinib + Luminespib; first compound 0.06325 µM) | relative viability (Dovitinib + Luminespib; first compound 0.2 µM) | relative viability (Dovitinib + Luminespib; first compound 0.6325 µM) | relative viability (Dovitinib + Luminespib; first compound 2 µM)
1 | LXF-289 | 1.01 | 1.02 | 1.02 | 1.03 | 0.926 | 0.214 | 0.228 | 0.195 | 0.189 | 0.171 | 0.201 | 0.206 | 0.263 | 0.253 | 0.266 | 0.722 | 0.683 | 0.737 | 0.677 | 0.663
2 | NCI-H23 | 0.788 | 0.638 | 0.766 | 0.631 | 0.627 | 0.293 | 0.475 | 0.581 | 0.354 | 0.358 | 0.837 | 0.729 | 0.976 | 0.731 | 0.734 | 0.194 | 0.219 | 0.201 | 0.229 | 0.24
3 | NCI-H322M | 0.84 | 0.774 | 0.792 | 0.809 | 0.776 | 0.482 | 0.497 | 0.523 | 0.436 | 0.493 | 0.24 | 0.263 | 0.243 | 0.249 | 0.284 | 0.835 | 0.883 | 0.831 | 0.803 | 0.792
4 | NCI-H522 |  |  |  |  |  | 0.549 | 0.583 | 0.536 | 0.54 | 0.665 | 0.857 | 0.867 | 0.93 | 0.706 | 0.887 | 1.15 | 0.989 | 1.01 | 1.19 | 1.07
5 | NCI-H1563 | 0.943 | 0.893 | 1.06 | 0.908 | 0.902 |  |  |  |  |  | 0.478 | 0.475 | 0.469 | 0.507 | 0.509 | 0.567 | 0.481 | 0.615 | 0.509 | 0.543
6 | NCI-H1648 |  |  |  |  |  | 0.491 | 0.532 | 0.562 | 0.402 | 0.564 |  |  |  |  |  |  |  |  |  | 
7 | NCI-H1650 |  |  |  |  |  | 0.394 | 0.349 | 0.424 | 0.325 | 0.361 | 0.335 | 0.26 | 0.365 | 0.348 | 0.384 | 0.199 | 0.192 | 0.199 | 0.189 | 0.19
8 | NCI-H1703 | 0.291 | 0.418 | 0.346 | 0.264 | 0.276 |  |  |  |  |  |  |  |  |  |  |  |  |  |  | 
9 | NCI-H1792 | 0.674 | 0.617 | 0.745 | 0.725 | 0.676 |  |  |  |  |  | 0.873 | 0.738 | 0.775 | 0.793 | 0.803 | 0.481 | 0.332 | 0.516 | 0.645 | 0.487
10 | NCI-H2342 |  |  |  |  |  | 0.602 | 0.631 | 0.488 | 0.488 | 0.504 | 0.339 | 0.324 | 0.337 | 0.298 | 0.318 | 0.675 | 0.711 | 0.741 | 0.692 | 0.579
11 | SW 900 |  |  |  |  |  | 0.459 | 0.537 | 0.533 | 0.582 | 0.689 | 0.741 | 0.586 | 0.548 | 0.546 | 0.61 | 0.181 | 0.173 | 0.176 | 0.164 | 0.149
